Assay results from patent US8101773B2, “Hydroxy methyl phenyl pyrazolyl urea compounds useful in the treatment of cancer” (Bayer Healthcare LLC, priority 2006, dated 2012).
Substitutions are numbered along the chain they refer to. Structures can show the parent of a compound that is named as a salt.

What was measured:
Bcr-Abl kinase = conditions: greater potency than Imatinib; cited from earlier work
Bcr-Abl E255K mutant = conditions: cited from earlier work
[1] = tested on: Imatinib-resistant Bcr-Abl mutations; conditions: cited from earlier work
[2] = molecular target: T1, mutant Bcr-Abl-T3151 kinase (Homo sapiens, UniProt P00519, T315I); experiment: Bcr-Abl mutant T315I biochemical assay (MBP phosphorylation, 33P-ATP); conditions: 50 μM ATP
T1 sequence (P00519 242-493 T315I limits assumed): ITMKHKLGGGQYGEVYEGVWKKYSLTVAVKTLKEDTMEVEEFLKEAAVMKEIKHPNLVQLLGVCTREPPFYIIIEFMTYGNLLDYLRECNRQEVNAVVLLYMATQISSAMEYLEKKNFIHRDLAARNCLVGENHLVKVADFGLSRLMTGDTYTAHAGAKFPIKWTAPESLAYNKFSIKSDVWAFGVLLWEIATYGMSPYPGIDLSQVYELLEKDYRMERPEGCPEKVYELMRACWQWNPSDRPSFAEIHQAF
Procedure: (§1) Bcr-Abl Wild Type and Mutant T315I Biochemical Assay
(§2) Bcr-Abl-wt or mutant Bcr-Abl-T3151 kinase (0.17 nM) was incubated with Myelin Basic Protein (MBP, 2 μM) in assay buffer consisting of 50 mM Tris pH 7.5, 10 mM MgCl2, 1 mM EGTA, 2 mM DTT, 50 μM ATP and 0.4 μCi of ^33P-ATP. Test compounds were added at varying concentrations (final DMSO conc=1%) prior to the addition of ATP. The reaction mixture was incubated for 1 hour at 32° C. The reaction was then stopped by addition of phosphoric acid (final conc=1%) and samples were transferred to filtermats and read in a betaplate reader. Inhibition of MBP phosphorylation by Bcr-Abl-wt or Bcr-Abl-T3151 was analyzed by using a 4 parameter fit and in-house software.

[3] = molecular target: T2, human recombinant c-Met intracellular kinase domain (Homo sapiens, UniProt P08581); experiment: c-Met biochemical assay, ELISA format; conditions: 0.2 μM ATP
T2 construct: C-terminal HIS-tagged intracellular kinase domain (956 to 1390 amino acids) human recombinant c-Met; His tag (C)
Procedure: An ELISA format was used for the c-Met biochemical assay. This assay uses the C-terminal HIS-tagged intracellular kinase domain (956 to 1390 amino acids) human recombinant c-Met in 96-well plates. 96-Well plates (Costar #9018) coated with poly(GluTyr) (Sigma # P0275) were used in this assay. The poly(GluTyr) substrate coated on the plate was phosphorylated in a 100 μL reaction volume with 2 nM c-Met protein in an assay buffer (50 mM HEPES pH7.0, 5 mM MnCl2, 0.1% BSA, 0.5 mM sodium orthovanadate, 0.1% β-mercaptoethanol), with 0.2 μM ATP (Sigma #A7699). […] After 25 minutes of incubation, the assay reaction was stopped with 25 μL of 100 mM EDTA. The plates were then washed, and wells were treated with 100 μL of 80 ng/mL anti-4G10-HRP antibody (Upstate #16-105) for 1 h. Plates were washed one final time, and were developed with 100 μL 3,3′,5,5′-TMB (Sigma #T8665), and quenched with 100 μL 1M HCl. Plates were read on a Victor 2 plate reader (Perkin Elmer) and IC50 analysis and calculation were performed using in-house software.

Bcr-Abl-wt kinase = molecular target: T3, Bcr-Abl-wt kinase (Homo sapiens, UniProt P00519); experiment: Bcr-Abl wild type biochemical assay (MBP phosphorylation, 33P-ATP); conditions: 50 μM ATP
T3 sequence (P00519 242-493 limits assumed): T1 sequence (P00519 242-493 T315I limits assumed) with I74T
Procedure: as §1, §2

[4] = In vitro tumor cell proliferation assay (Cell Titre-Glo), cell lines of interest; type: cell-based; conditions: 72 hours, Cell Titer Glo; read-out: antiproliferative properties (IC50) in one or more cell lines of interest
From the text: In vitro Tumor Cell Proliferation Assay

[5] = molecular target: T4, Flk-1 (murine VEGFR-2) kinase domain (Mus musculus, UniProt P35918); experiment: Flk-1 (murine VEGFR-2) biochemical assay, TR-FRET; conditions: 10 μM ATP
T4 construct: 7 nM Flk-1 (kinase domain)
Procedure: Flk-1 (Murine VEGFR-2) Biochemical Assay
This assay was performed in 96-well opaque plates (Costar 3915) in the TR-FRET format. Reaction conditions were as follows: 10 μM ATP, 25 nM poly GT-biotin, 2 nM Eu-labelled phospho-Tyr Ab (PY20 Perkin Elmer), 10 nM APC (Perkin Elmer), 7 nM Flk-1 (kinase domain), 1% DMSO, 50 mM HEPES pH 7.5, 10 mM MgCl2, 0.1 mM EDTA, 0.015% BRIJ, 0.1 mg/mL BSA, 0.1% mercapto-ethanol). Reaction was initiated upon addition of enzyme. Final reaction volume in each well was 100 μL. Plates were read at both 615 and […] on a Perkin Elmer Victor V Multilabel counter at about 1.5-2.0 hours after reaction initiation. Signal was calculated as a ratio: (665 nm/615 nm)*10000 for each well.

early phase CML = conditions: patients with early phase CML; cited from earlier work

T4 sequence (P35918 832-1160 limits assumed): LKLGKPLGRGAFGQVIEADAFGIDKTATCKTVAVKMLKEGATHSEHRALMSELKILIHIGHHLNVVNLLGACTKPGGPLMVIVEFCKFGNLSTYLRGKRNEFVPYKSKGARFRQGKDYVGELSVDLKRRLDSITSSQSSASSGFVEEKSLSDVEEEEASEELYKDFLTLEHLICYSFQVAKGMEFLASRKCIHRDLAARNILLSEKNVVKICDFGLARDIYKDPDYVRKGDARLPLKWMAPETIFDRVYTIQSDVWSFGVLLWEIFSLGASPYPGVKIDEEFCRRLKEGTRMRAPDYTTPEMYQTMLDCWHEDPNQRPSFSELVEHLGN
T2 sequence (P08581 956-1390): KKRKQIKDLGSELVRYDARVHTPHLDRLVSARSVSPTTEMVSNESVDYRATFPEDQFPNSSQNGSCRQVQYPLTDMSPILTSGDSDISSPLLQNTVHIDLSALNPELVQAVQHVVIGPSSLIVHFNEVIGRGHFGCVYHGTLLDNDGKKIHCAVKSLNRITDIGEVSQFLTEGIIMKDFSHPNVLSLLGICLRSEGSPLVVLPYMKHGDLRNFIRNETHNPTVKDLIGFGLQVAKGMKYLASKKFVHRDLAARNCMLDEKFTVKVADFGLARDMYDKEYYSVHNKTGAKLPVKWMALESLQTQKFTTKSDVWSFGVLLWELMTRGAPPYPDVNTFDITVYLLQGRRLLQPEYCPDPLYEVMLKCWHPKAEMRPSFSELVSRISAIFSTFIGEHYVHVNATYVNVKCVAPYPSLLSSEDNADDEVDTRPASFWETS

| SMILES | IC50 [2] [nM] | IC50 [3] [nM] | IC50 (Bcr-Abl-wt kinase) [nM] | IC50 [4] [nM] | IC50 [5] [nM] | potency of inhibition of Bcr-Abl kinase activity relative to Imatinib (Bcr-Abl kinase) [fold] | inhibition of E255K mutant in a biochemical assay (Bcr-Abl E255K mutant) | inhibition of Imatinib-resistant Bcr-Abl mutations [1] | degree of response at both haematological and cytogenetic levels (early phase CML) |
| --- | --- | --- | --- | --- | --- | --- | --- | --- | --- |
| Cc1cn(-c2cc(NC(=O)c3ccc(C)c(Nc4nccc(-c5cccnc5)n4)c3)cc(C(F)(F)F)c2)cn1 [AMN-107, nilotinib] |  |  |  |  |  | 20 | somewhat weak inhibition | inhibit most Imatinib-resistant Bcr-Abl mutations, except for T315I |  |
| CNC(=O)c1cc(Oc2ccc(NC(=O)Nc3cc(C(C)(C)C)nn3-c3cccc(COC(=O)[C@@H](N)C(C)C)c3)c(F)c2)ccn1 [Example 10, 3-(3-tert-Butyl-5-{[(2-fluoro-4-{[2-(methylcarbamoyl)pyridin-4-yl]oxy}-phenyl)carbamoyl]amino}-1H-pyrazol-1-yl)benzyl L-valinate] | < 1000 | < 1000 | < 1000 |  | < 1000 |  |  |  |  |
| CNC(=O)c1cc(Oc2ccc(NC(=O)Nc3cc(C(C)(C)C)nn3-c3cccc(COC(C)=O)c3)c(F)c2)ccn1 [Example 11, 3-(3-tert-Butyl-5-{[(2-fluoro-4-{[2-(methylcarbamoyl)pyridin-4-yl]oxy}-phenyl)carbamoyl]amino}-1H-pyrazol-1-yl)benzyl acetate] | < 1000 | < 1000 | < 1000 | < 5000 | < 1000 |  |  |  |  |
| CNC(=O)c1cc(Oc2ccc(NC(=O)Nc3cc(C(C)(C)C)nn3-c3cccc(COP(=O)(O)O)c3)c(F)c2)ccn1 [Example 13, 3-(3-tert-Butyl-5-{[(2-fluoro-4-{[2-(methylcarbamoyl)pyridin-4-yl]oxy}-phenyl)carbamoyl]amino}-1H-pyrazol-1-yl)benzyl dihydrogen phosphate dihydrochloride] |  |  |  | < 5000 |  |  |  |  |  |
| CNC(=O)c1cc(Oc2ccc(NC(=O)Nc3cc(C(C)(C)C)nn3-c3cccc(COC(=O)CCC(=O)O)c3)c(F)c2)ccn1 [Example 14, 4-{[3-(3-tert-Butyl-5-{[(2-fluoro-4-{[2-(methylcarbamoyl)pyridin-4-yl]oxy}-phenyl)carbamoyl]amino}-1H-pyrazol-1-yl)benzyl]oxy}-4-oxobutanoic acid] | < 1000 | < 1000 | < 1000 | < 5000 | < 1000 |  |  |  |  |
| CNC(=O)c1cc(Oc2ccc(NC(=O)Nc3cc(C(C)(C)C)nn3-c3cccc(COC(=O)CC(C)C)c3)c(F)c2)ccn1 [Example 17, 3-(3-tert-Butyl-5-{[(2-fluoro-4-{[2-(methylcarbamoyl)pyridin-4-yl]oxy}phenyl)carbamoyl]amino}-1H-pyrazol-1-yl)benzyl 3-methylbutanoate] | < 20000 | < 20000 |  |  |  |  |  |  |  |
| Cc1ccc(NC(=O)c2ccc(CN3CCN(C)CC3)cc2)cc1Nc1nccc(-c2cccnc2)n1 [Imatinib] |  |  |  |  |  |  |  |  | greater than 90% |

Further lines, with some results ahead:

| IC50 [2] [nM] | IC50 [3] [nM] | IC50 (Bcr-Abl-wt kinase) [nM] | IC50 [4] [nM] | IC50 [5] [nM] | SMILES | potency of inhibition of Bcr-Abl kinase activity relative to Imatinib (Bcr-Abl kinase) [fold] | inhibition of E255K mutant in a biochemical assay (Bcr-Abl E255K mutant) | inhibition of Imatinib-resistant Bcr-Abl mutations [1] | degree of response at both haematological and cytogenetic levels (early phase CML) |
| --- | --- | --- | --- | --- | --- | --- | --- | --- | --- |
| < 20000 | < 20000 |  |  |  | CNC(=O)c1cc(Oc2ccc(NC(=O)Nc3cc(C(C)(C)C)nn3-c3cccc(COC(=O)[C@H](NC(=O)OCC4c5ccccc5-c5ccccc54)C(C)C)c3)c(F)c2)ccn1 [Example 8, 3-(3-tert-Butyl-5-{[(2-fluoro-4-{[2-(methylcarbamoyl)pyridin-4-yl]oxy}phenyl)carbamoyl]amino}-1H-pyrazol-1-yl)benzyl-N-[(9H-fluoren-9-ylmethoxy)carbonyl]D valinate] |  |  |  |  |
| < 1000 | < 1000 | < 1000 | < 5000 | < 1000 | CNC(=O)c1cc(Oc2ccc(NC(=O)Nc3cc(C(C)(C)C)nn3-c3cccc(COC(=O)[C@H](N)C(C)C)c3)c(F)c2)ccn1 [Example 9, 3-(3-tert-Butyl-5-{[(2-fluoro-4-{[2-(methylcarbamoyl)pyridin-4-yl]oxy}phenyl)-carbamoyl]amino}-1H-pyrazol-1-yl)benzyl D-valinate] |  |  |  |  |
| < 20000 | < 20000 |  | < 5000 |  | CNC(=O)c1cc(Oc2ccc(NC(=O)Nc3cc(C(C)(C)C)nn3-c3cccc(COP(=O)(OC(C)(C)C)OC(C)(C)C)c3)c(F)c2)ccn1 [Example 12, Di-tert-butyl 3-(3-tert-butyl-5-{[(2-fluoro-4-{[2-(methylcarbamoyl)pyridin-4-yl]oxy}phenyl)carbamoyl]amino}-1H-pyrazol-1-yl)benzyl phosphate] |  |  |  |  |
| < 1000 | < 1000 | < 1000 |  | < 1000 | CNC(=O)c1cc(Oc2ccc(NC(=O)Nc3cc(C(C)(C)C)nn3-c3cccc(COC(=O)COC)c3)c(F)c2)ccn1 [Example 15, 3-(3-tert-Butyl-5-{[(2-fluoro-4-{[2-(methylcarbamoyl)pyridin-4-yl]oxy}phenyl)carbamoyl]amino}-1H-pyrazol-1-yl)benzyl methoxyacetate] |  |  |  |  |
| < 1000 | < 1000 | < 1000 |  | < 1000 | CCC(=O)OCc1cccc(-n2nc(C(C)(C)C)cc2NC(=O)Nc2ccc(Oc3ccnc(C(=O)NC)c3)cc2F)c1 [Example 16, 3-(3-tert-butyl-5-{[(2-fluoro-4-{[2-(methylcarbamoyl)pyridin-4-yl]oxy}phenyl)carbamoyl]amino}-1H-pyrazol-1-yl)benzyl propionate] |  |  |  |  |
